# Assay results from US6737383B1, “Herbicidal oxadiazolidines” (priority 1999, dated 2004).
# Assays:
# [1] = tested on: surinam grass; test: Test B pre/postemergence surinam grass; type: in vivo, Brachiaria decumbens
# Method in brief: (§1)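 Response is a visual 0-to-10 score relative to untreated plants, where 0 means no effect and 10 means complete control, taken twelve to sixteen days after application. Treatments went onto soil at planting and onto foliage of 1- to 4-leaf plants, using a surfactant-containing non-phytotoxic solvent.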
# [2] = tested on: crabgrass; test: Test B pre/postemergence crabgrass; type: in vivo, Digitaria sanguinalis
# Method in brief: as §1
# [3] = tested on: corn; test: Test B pre/postemergence corn; type: in vivo, Zea mays
# Method in brief: as §1
# [4] = tested on: bedstraw; test: Test B pre/postemergence bedstraw; type: in vivo, Galium aparine
# Method in brief: as §1
# [5] = Postemergence, Rate 62 g/ha, scale 0 to 10, 0 is no effect, 10 is complete control
# [6] = Postemergence, Rate 250 g/ha, scale 0 to 10, 0 no effect, 10 complete control
# [7] = Preemergence, Rate 62 g/ha, scale 0 to 10, 0 is no effect, 10 is complete control
# [8] = Preemergence, Rate 125 g/ha, scale 0 to 10 (0 no effect, 10 complete control)
# [9] = Preemergence, Rate 250 g/ha, scale of 0 to 10 where 0 is no effect and 10 is complete control
# [10] = Preemergence, Rate 500 g/ha, scale 0 (no effect) to 10 (complete control)
# [11] = Rate 125 g/ha, Postemergence, scale 0 to 10, 0 no effect, 10 complete control
# [12] = Rate 500 g/ha, Postemergence, 0 to 10 scale (0 no effect, 10 complete control)
# [13] = Preemergence, Rate 31 g/ha, visual rating, scale 0 to 10 (0 no effect, 10 complete control)
# [14] = Rate 31 g/ha, Postemergence, scale 0 to 10
SMILES,"B. signalgrass plant response rating [1, 5]","B. signalgrass plant response rating [1, 6]","Plant response rating, B. signalgrass [1, 7]","Plant response rating, B. signalgrass [1, 8]","Plant response rating, B. signalgrass [1, 9]","B. signalgrass plant response rating [1, 11]","Crabgrass plant response rating [2, 5]","Crabgrass plant response rating [2, 6]","Plant response rating, Crabgrass [2, 7]","Plant response rating, Crabgrass [2, 8]","Plant response rating, Crabgrass [2, 9]","Crabgrass plant response rating [2, 11]","Corn plant response rating [3, 5]","Corn plant response rating [3, 6]","Plant response rating, Corn [3, 7]","Plant response rating, Corn [3, 8]","Plant response rating, Corn [3, 9]","Corn plant response rating [3, 11]","Bedstraw plant response rating [4, 5]","Bedstraw plant response rating [4, 6]",other results
CC(C)N(C(=O)n1oc(=O)n(-c2ccccc2OC(F)(F)F)c1=O)c1ccc(F)cc1 [Compound 14],0,0,0,0,0,0,0,0,0,0,9,0,0,0,0,0,0,0,0,0,"B. signalgrass plant response rating [1, 10]: 2; B. signalgrass plant response rating [1, 12]: 0; Crabgrass plant response rating [2, 10]: 9; Crabgrass plant response rating [2, 12]: 8; Corn plant response rating [3, 10]: 4; Corn plant response rating [3, 12]: 0; Plant response rating, Bedstraw [4, 7]: 0; Plant response rating, Bedstraw [4, 8]: 0; Plant response rating, Bedstraw [4, 9]: 0; Bedstraw plant response rating [4, 10]: 4; Bedstraw plant response rating [4, 11]: 0; Bedstraw plant response rating [4, 12]: 1"
CC(C)N(C(=O)n1oc(=O)n(-c2ccc(F)cc2F)c1=O)c1ccc(F)cc1F [Compound 22],0,2,0,2,4,0,0,9,3,4,8,4,0,0,0,0,2,0,1,4,"B. signalgrass plant response rating [1, 13]: 0; B. signalgrass plant response rating [1, 14]: 0; Crabgrass plant response rating [2, 13]: 3; Crabgrass plant response rating [2, 14]: 0; Corn plant response rating [3, 13]: 0; Corn plant response rating [3, 14]: 0; Bedstraw plant response rating [4, 13]: 0; Plant response rating, Bedstraw [4, 7]: 0; Plant response rating, Bedstraw [4, 8]: 0; Plant response rating, Bedstraw [4, 9]: 4; Bedstraw plant response rating [4, 14]: 0; Bedstraw plant response rating [4, 11]: 2"
CCN(C(=O)n1oc(=O)n(-c2ccc(F)cc2F)c1=O)C1CCCCC1 [Compound 23],0,0,0,0,0,0,0,6,3,3,3,1,0,0,0,0,0,0,0,0,"B. signalgrass plant response rating [1, 13]: 0; B. signalgrass plant response rating [1, 14]: 0; Crabgrass plant response rating [2, 13]: 0; Crabgrass plant response rating [2, 14]: 0; Corn plant response rating [3, 13]: 0; Corn plant response rating [3, 14]: 0; Bedstraw plant response rating [4, 13]: 0; Plant response rating, Bedstraw [4, 7]: 0; Plant response rating, Bedstraw [4, 8]: 0; Plant response rating, Bedstraw [4, 9]: 0; Bedstraw plant response rating [4, 14]: 0; Bedstraw plant response rating [4, 11]: 0"
Cc1ccc(-n2c(=O)on(C(=O)N(c3ccc(F)cc3F)C(C)C)c2=O)c(C)c1 [Compound 24],0,3,0,4,4,3,2,9,0,6,9,8,0,0,0,0,0,0,2,8,"B. signalgrass plant response rating [1, 10]: 6; B. signalgrass plant response rating [1, 12]: 3; Crabgrass plant response rating [2, 10]: 10; Crabgrass plant response rating [2, 12]: 10; Corn plant response rating [3, 10]: 0; Corn plant response rating [3, 12]: 0; Plant response rating, Bedstraw [4, 7]: 0; Plant response rating, Bedstraw [4, 8]: 0; Plant response rating, Bedstraw [4, 9]: 0; Bedstraw plant response rating [4, 10]: 0; Bedstraw plant response rating [4, 11]: 3; Bedstraw plant response rating [4, 12]: 8"
COc1ccc(-n2c(=O)on(C(=O)N(c3ccc(F)cc3)C(C)C)c2=O)c(OC)c1 [Compound 33],0,1,0,0,7,0,1,2,3,3,7,2,0,0,0,0,0,0,0,2,"B. signalgrass plant response rating [1, 13]: 0; B. signalgrass plant response rating [1, 14]: 0; Crabgrass plant response rating [2, 13]: 3; Crabgrass plant response rating [2, 14]: 0; Corn plant response rating [3, 13]: 0; Corn plant response rating [3, 14]: 0; Bedstraw plant response rating [4, 13]: 0; Plant response rating, Bedstraw [4, 7]: 0; Plant response rating, Bedstraw [4, 8]: 0; Plant response rating, Bedstraw [4, 9]: 0; Bedstraw plant response rating [4, 14]: 0; Bedstraw plant response rating [4, 11]: 1"
